Laboratory results taken from ChEMBL document CHEMBL6096692, “Discovery of 2(1H)-Quinoxalinone Derivatives as Potent and Selective MAT2A Inhibitors for the Treatment of MTAP-Deficient Cancers” (J Med Chem, 2025).
≈ marks a conversion by molar mass, not a printed value. Calls of active or inactive are those of the source. No cut-off for these calls is given here.

Assays:
MDA-MB-231 = assay: Antiproliferative activity against MTAP null human MDA-MB-231 cells assessed as inhibition of cell viability measured for 96 hrs by SRB assay; assay type: functional, cell-based
[1] = AUC (0 to t) in male ICR mouse at 10 mg/kg, po measured upto 36 hrs by LC-MS/MS analysis; assay type: ADME, organism-based; conditions: in vivo
[2] = Lipophilicity, LogD of the compound in 1-Octanol/PBS by shake flask method; assay type: physicochemical
[3] = molecular target: T1, S-adenosylmethionine synthase isoform type-2 (Homo sapiens, UniProt P31153); assay: Inhibition of MAT2A in MTAP null human MIA PaCa-2 cells assessed as reduction in SAM level measured for 4 hrs by immunoblotting analysis; assay type: cell-based; conditions: dose <= 1.0 µM
T1 sequence (P31153 whole entry, looked up, canonical isoform): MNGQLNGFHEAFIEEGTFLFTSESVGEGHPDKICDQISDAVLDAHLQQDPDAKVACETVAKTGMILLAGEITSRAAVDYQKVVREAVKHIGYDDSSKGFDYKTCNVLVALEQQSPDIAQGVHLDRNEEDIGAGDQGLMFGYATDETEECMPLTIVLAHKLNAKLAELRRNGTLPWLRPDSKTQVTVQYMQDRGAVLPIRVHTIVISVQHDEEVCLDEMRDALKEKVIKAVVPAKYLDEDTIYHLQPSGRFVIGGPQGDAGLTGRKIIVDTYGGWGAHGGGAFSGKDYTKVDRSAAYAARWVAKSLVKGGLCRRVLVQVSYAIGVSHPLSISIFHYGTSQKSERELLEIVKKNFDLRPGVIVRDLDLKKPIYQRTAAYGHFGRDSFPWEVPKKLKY

MCF7 = assay: Antiproliferative activity against MTAP null human MCF7 cells assessed as inhibition of cell viability measured for 96 hrs by SRB assay; assay type: functional, cell-based
SF-126 = assay: Induction of DNA damage in MTAP knockout human SF-126 cells assessed as increase in gammaH2AX level at 0.1 to 10 uM measured for 96 hrs by Western blot analysis; assay type: functional, cell-based; conditions: dose 0.1-10 µM
[4] = Plasma protein binding in mouse assessed as unbound fraction; assay type: ADME, cell-free
B16-F10 [5] = assay: Antitumor activity against MTAP-knockout mouse B16-F10 cells implanted in mouse assessed as reduction in SAM level in plasma at 30 to 60 mg/kg, po administered for 10 days and measured after 12 hrs; assay type: functional, organism-based; conditions: dose 30-60 mg/kg, time 10.5 day
Daoy [6] = assay: Antitumor activity against human Daoy cells xenografted in mouse assessed as tumor growth inhibition at 30 mg/kg, po measured after 28 days; assay type: functional, organism-based; conditions: time 28.0 day
B16-F10 [7] = assay: Inhibition of MAT2A in MTAP knockout mouse B16-F10 cells assessed as reduction in SAM level measured for 4 hrs by immunoblotting analysis; assay type: cell-based; conditions: dose <= 1.0 µM
NCI-H1437 = assay: Antiproliferative activity against MTAP null human NCI-H1437 cells assessed as inhibition of cell viability measured for 96 hrs by SRB assay; assay type: functional, cell-based
[8] = molecular target: S-adenosylmethionine synthase isoform type-2 (Mus musculus) (UniProt Q3THS6); assay: Inhibition of MAT2A in MTAP null mouse B16-F10 cells assessed as reduction in SAM level measured for 4 hrs by immunoblotting analysis; assay type: cell-based; conditions: dose <= 1.0 µM
Chain of S-adenosylmethionine synthase isoform type-2 (Mus musculus) (Q3THS6 whole entry, canonical isoform): as the sequence (P31153 whole entry, looked up, canonical isoform) above, with V77I, V87I counted along it

B16-F10 [9] = assay: Antiproliferative activity against mouse B16-F10 cells harboring wild type MTAP assessed as inhibition of cell viability measured for 96 hrs by SRB assay; assay type: functional, cell-based; conditions: B16-F10, 96 h
[10] = Cmax in male ICR mouse at 1 mg/kg, iv measured upto 36 hrs by LC-MS/MS analysis; assay type: ADME, organism-based; conditions: in vivo
[11] = Kinetic solubility of compound in phosphate buffer at pH 7.4; assay type: physicochemical; conditions: read-out: Kinetic_solubility
[12] = Toxicity in ICR mouse at 500 mg/kg, po measured for 7 days; assay type: organism-based; conditions: in vivo, 168 h, time 7 day
[13] = Half life in male ICR mouse at 10 mg/kg, po measured upto 36 hrs by LC-MS/MS analysis; assay type: ADME, organism-based; conditions: in vivo
[14] = molecular target: S-adenosylmethionine synthase isoform type-2 (Mus musculus) (UniProt Q3THS6); assay: Inhibition of MAT2A in mouse B16-F10 cells assessed as reduction in SAM level measured for 4 hrs by immunoblotting analysis; assay type: cell-based; conditions: dose <= 1.0 µM
[15] = molecular target: Protein arginine N-methyltransferase 5 (Homo sapiens) (UniProt O14744); assay: Inhibition of PRMT5 in MTAP-null human MIA PaCa-2 cells incubated for 24 hrs by Western blot analysis; assay type: cell-based
Chain of Protein arginine N-methyltransferase 5 (Homo sapiens) (O14744 whole entry): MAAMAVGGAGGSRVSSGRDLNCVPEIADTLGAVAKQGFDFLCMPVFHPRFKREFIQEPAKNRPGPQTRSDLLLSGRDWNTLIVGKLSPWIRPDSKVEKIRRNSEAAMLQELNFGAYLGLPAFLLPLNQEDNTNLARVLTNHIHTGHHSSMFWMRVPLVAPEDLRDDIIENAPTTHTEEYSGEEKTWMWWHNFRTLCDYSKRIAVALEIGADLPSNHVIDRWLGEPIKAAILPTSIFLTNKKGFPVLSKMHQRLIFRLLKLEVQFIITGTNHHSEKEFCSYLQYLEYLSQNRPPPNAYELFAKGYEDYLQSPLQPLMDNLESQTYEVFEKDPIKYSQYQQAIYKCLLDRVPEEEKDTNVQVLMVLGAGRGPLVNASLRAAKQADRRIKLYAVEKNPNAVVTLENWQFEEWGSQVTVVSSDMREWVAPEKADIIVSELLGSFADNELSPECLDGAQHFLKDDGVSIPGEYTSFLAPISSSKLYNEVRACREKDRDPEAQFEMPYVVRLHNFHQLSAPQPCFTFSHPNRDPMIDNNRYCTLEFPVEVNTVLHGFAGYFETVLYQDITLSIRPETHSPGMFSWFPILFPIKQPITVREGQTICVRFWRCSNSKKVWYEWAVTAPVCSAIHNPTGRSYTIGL

B16-F10 [16] = assay: Antiproliferative activity against MTAP knockout mouse B16-F10 cells assessed as inhibition of cell proliferation measured for 96 hrs by SRB assay; assay type: functional, cell-based
Cytochrome P450 2C9 = Cytochrome P450 2C9 (Homo sapiens, UniProt P11712); assay: Inhibition of CYP2C9 in human liver microsomes using diclofenac as substrate incubated for 10 mins in presence of NADPH by LC-MS/MS analysis; assay type: ADME, Microsome
Chain of Cytochrome P450 2C9 (P11712 whole entry): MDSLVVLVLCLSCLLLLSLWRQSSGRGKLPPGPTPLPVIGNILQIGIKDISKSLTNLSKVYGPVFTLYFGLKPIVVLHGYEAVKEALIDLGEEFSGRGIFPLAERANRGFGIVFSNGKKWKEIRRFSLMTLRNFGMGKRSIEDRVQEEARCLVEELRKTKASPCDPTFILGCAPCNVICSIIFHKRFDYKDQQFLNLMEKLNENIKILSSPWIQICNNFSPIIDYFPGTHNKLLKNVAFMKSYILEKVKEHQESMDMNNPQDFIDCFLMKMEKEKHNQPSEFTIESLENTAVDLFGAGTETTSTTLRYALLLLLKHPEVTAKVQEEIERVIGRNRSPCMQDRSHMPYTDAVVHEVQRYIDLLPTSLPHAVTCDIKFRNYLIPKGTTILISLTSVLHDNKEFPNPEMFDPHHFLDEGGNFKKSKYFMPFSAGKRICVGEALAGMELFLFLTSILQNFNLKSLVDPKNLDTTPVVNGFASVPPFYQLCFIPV

[17] = Selectivity index, ratio of IC50 for antiproliferative activity against mouse B16-F10 cells harboring wild type MTAP assessed as inhibition of cell viability to IC50 for antiproliferative activity against MTAP knockout mouse B16-F10 cells assessed as inhibition of cell viability; assay type: functional
[18] = Clearance in male ICR mouse at 1 mg/kg, iv measured upto 36 hrs by LC-MS/MS analysis; assay type: ADME, organism-based; conditions: in vivo
Daoy [19] = assay: Antitumor activity against human Daoy cells xenografted in mouse assessed as reduction in SDMA level in tumor at 30 mg/kg, po measured after 28 days; assay type: functional, organism-based; conditions: time 28.0 day
B16-F10 [20] = assay: Antitumor activity against MTAP-knockout mouse B16-F10 cells implanted mouse assessed as reduction in SAM level in tumor at 30 to 60 mg/kg, po administered for 10 days and measured after 12 hrs; assay type: functional, organism-based; conditions: dose 30-60 mg/kg, time 10.5 day
BXPC-3 = assay: Antiproliferative activity against MTAP null human BXPC-3 cells assessed as inhibition of cell viability measured for 96 hrs by SRB assay; assay type: functional, cell-based
MIA PaCa-2 [21] = assay: Antiproliferative activity against MTAP null human MIA PaCa-2 cells assessed as inhibition of cell viability measured for 96 hrs by SRB assay; assay type: functional, cell-based
[22] = molecular target: T1, S-adenosylmethionine synthase isoform type-2; assay: Inhibition of MAT2A in human MIA PaCa-2 cells assessed as reduction in SAM level measured for 4 hrs by immunoblotting analysis; assay type: cell-based; conditions: dose <= 1.0 µM
[23] = Cmax in male ICR mouse at 10 mg/kg, po measured upto 36 hrs by LC-MS/MS analysis; assay type: ADME, organism-based; conditions: in vivo
Cytochrome P450 2C19 = Cytochrome P450 2C19 (Homo sapiens, UniProt P33261); assay: Inhibition of CYP2C19 in human liver microsomes using S-mephenytoin as substrate incubated for 10 mins in presence of NADPH by LC-MS/MS analysis; assay type: ADME, Microsome
Chain of Cytochrome P450 2C19 (P33261 whole entry): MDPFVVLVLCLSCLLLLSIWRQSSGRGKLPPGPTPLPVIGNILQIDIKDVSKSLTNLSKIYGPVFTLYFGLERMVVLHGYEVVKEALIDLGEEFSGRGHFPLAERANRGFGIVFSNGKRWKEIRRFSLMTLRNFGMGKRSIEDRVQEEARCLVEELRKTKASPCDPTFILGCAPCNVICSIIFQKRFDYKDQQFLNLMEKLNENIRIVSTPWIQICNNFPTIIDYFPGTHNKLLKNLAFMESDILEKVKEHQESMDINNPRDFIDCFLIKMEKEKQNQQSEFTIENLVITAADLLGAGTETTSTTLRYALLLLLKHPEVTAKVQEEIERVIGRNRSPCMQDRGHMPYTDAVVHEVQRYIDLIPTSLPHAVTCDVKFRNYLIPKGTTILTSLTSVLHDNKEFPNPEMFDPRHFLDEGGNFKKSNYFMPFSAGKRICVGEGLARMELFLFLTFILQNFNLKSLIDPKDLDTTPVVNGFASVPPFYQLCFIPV

[24] = Selectivity index, ratio of IC50 for antiproliferative activity against MTAP knockout human SF-126 cells to IC50 for antiproliferative activity against human SF-126 cells harboring wild type MTAP; assay type: functional
Cytochrome P450 2D6 = Cytochrome P450 2D6 (Homo sapiens, UniProt P10635); assay: Inhibition of CYP2D6 in human liver microsomes using dextromethorphan as substrate incubated for 10 mins in presence of NADPH by LC-MS/MS analysis; assay type: ADME, Microsome
Chain of Cytochrome P450 2D6 (P10635 whole entry): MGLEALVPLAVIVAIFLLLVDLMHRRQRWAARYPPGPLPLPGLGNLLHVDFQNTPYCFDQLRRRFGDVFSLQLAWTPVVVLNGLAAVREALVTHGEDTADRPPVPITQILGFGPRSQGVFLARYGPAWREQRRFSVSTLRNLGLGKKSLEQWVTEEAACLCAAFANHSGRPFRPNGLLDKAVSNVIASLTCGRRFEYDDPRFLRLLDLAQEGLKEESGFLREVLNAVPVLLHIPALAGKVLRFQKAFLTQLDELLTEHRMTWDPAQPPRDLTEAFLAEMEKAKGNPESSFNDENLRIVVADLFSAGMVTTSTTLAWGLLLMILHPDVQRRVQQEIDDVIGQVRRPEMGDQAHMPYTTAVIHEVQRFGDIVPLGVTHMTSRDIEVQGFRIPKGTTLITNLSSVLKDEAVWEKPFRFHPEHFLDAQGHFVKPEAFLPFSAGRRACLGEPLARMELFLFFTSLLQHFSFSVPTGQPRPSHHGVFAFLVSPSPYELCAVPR

MIA PaCa-2 [25] = assay: Antitumor activity against MTAP null human MIA PaCa-2 cells xenografted in mouse assessed as inhibition of SAM production in plasma at 30 to 60 mg/kg, po measured after 28 days; assay type: functional, organism-based; conditions: dose 30-60 mg/kg, time 28.0 day
[26] = molecular target: Voltage-gated inwardly rectifying potassium channel KCNH2 (Homo sapiens, UniProt Q12809); assay: Inhibition of hERG expressed in CHO cells incubated for 12 hrs by Qpatch assay; assay type: toxicity, cell-based
Chain of Voltage-gated inwardly rectifying potassium channel KCNH2 (Q12809 whole entry): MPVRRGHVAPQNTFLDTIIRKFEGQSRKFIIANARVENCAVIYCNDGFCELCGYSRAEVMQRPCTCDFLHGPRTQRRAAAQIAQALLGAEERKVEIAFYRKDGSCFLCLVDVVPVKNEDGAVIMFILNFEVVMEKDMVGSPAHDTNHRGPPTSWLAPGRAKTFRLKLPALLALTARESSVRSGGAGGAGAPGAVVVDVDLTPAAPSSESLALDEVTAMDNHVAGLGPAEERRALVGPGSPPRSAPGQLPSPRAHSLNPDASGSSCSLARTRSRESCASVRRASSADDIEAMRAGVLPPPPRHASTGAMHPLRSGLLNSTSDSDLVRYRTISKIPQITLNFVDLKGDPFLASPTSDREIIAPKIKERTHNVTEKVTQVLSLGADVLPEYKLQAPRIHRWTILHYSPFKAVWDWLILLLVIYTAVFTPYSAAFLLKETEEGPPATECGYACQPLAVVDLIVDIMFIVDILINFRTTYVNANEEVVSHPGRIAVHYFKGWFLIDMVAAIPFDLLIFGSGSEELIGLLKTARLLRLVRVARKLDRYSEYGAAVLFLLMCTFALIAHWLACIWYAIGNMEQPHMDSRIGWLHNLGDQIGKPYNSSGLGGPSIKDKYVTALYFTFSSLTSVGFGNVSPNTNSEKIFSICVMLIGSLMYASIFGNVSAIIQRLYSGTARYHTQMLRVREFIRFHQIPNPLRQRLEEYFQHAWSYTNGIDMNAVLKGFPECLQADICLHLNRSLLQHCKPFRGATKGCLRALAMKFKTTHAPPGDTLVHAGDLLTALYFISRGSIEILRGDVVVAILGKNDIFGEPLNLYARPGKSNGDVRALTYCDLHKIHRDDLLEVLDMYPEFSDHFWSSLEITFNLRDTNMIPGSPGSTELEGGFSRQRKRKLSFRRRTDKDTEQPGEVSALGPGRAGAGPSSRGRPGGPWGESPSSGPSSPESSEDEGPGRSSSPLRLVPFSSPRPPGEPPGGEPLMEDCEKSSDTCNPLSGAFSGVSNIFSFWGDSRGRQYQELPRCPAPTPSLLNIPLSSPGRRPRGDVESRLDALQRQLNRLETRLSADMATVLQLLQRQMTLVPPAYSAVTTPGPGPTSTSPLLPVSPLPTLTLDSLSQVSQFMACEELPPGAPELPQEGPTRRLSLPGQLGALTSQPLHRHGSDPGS

B16-F10 [27] = assay: Antitumor activity against mouse B16-F10 cells harboring wild type MTAP implanted in mouse assessed as reduction in tumor volume at 30 to 60 mg/kg, po administered for 10 days and measured after 12 days; assay type: functional, organism-based; conditions: dose 30-60 mg/kg, time 22.0 day
[28] = AUC (0 to t) in male ICR mouse at 1 mg/kg, iv measured upto 36 hrs by LC-MS/MS analysis; assay type: ADME, organism-based; conditions: in vivo
B16-F10 [29] = assay: Antiproliferative activity against mouse B16-F10 cells harboring MTAP D220A mutant assessed as inhibition of cell proliferation measured for 96 hrs by SRB assay; assay type: functional, cell-based

AUC(0-t) at 36 h [1]: 36500 ng·h/mL | logD [2]: 3.69 | inhibition [3]: Dose-dependent-effect | fraction unbound [4]: 0.016 | inhibition [8]: Active | IC50 (B16-F10 [9]): > 20 µM | Cmax [10]: 985 ng/mL | solubility kinetic [11]: 3.11 µM (≈ 1.43 µg/mL) | half-life [13]: 6.73 h | inhibition [14]: Dose-dependent-effect | inhibition [15]: Active | IC50 (Cytochrome P450 2C9): 12.7 µM | clearance [18]: 5.17 mL/min/kg | inhibition [22]: Dose-dependent-effect | Cmax [23]: 2600 ng/mL | IC50 (Cytochrome P450 2C19): 8.7 µM | IC50 (Cytochrome P450 2D6): 9.2 µM | AUC(0-t) at 36 h [28]: 3100 ng·h/mL
Structure (SMILES): Cn1cnc2ccc(-c3nc4ccc(C5CC5)cc4n(-c4ccc(OC(F)F)cc4)c3=O)cc21
Activity (MDA-MB-231): Active | Activity (MCF7): Active | Activity (SF-126): Active | Activity (B16-F10 [5]): Active | TGI (Daoy [6]): Active | inhibition (B16-F10 [7]): Dose-dependent-effect | Activity (NCI-H1437): Active | Activity [12]: Non-toxic | Activity (B16-F10 [16]): Active | Ratio IC50 [17]: >46.5 | Activity (Daoy [19]): Active | Activity (B16-F10 [20]): Active | Activity (BXPC-3): Active | Activity (MIA PaCa-2 [21]): Active | Ratio IC50 [24]: >57 | Activity (MIA PaCa-2 [25]): Active | IC50 [26]: 38 µM | Activity (B16-F10 [27]): Active | Activity (B16-F10 [29]): inactive
